Data as given in patent publication US20250177363A1, “SUBSTITUTED IMIDAZOPYRIDINYL COMPOUNDS USEFUL AS INHIBITORS OF TLR9” (Bristol-Myers Squibb Company, priority 2022, published 2025).

Experiments:
Type in all cases: cell-based
human TLR7 = molecular target: T1, human TLR7 (Homo sapiens, UniProt Q9NYK1); experiment: TLR7 inhibition reporter assay (HEK-Blue, SEAP); conditions: HEK-Blue cells overexpressing human TLR7, ligand gardiquimod 2.5 μM, 22 hour incubation
T1 construct: host or cells: HEK-Blue cells
T1 sequence (Q9NYK1 27-1049): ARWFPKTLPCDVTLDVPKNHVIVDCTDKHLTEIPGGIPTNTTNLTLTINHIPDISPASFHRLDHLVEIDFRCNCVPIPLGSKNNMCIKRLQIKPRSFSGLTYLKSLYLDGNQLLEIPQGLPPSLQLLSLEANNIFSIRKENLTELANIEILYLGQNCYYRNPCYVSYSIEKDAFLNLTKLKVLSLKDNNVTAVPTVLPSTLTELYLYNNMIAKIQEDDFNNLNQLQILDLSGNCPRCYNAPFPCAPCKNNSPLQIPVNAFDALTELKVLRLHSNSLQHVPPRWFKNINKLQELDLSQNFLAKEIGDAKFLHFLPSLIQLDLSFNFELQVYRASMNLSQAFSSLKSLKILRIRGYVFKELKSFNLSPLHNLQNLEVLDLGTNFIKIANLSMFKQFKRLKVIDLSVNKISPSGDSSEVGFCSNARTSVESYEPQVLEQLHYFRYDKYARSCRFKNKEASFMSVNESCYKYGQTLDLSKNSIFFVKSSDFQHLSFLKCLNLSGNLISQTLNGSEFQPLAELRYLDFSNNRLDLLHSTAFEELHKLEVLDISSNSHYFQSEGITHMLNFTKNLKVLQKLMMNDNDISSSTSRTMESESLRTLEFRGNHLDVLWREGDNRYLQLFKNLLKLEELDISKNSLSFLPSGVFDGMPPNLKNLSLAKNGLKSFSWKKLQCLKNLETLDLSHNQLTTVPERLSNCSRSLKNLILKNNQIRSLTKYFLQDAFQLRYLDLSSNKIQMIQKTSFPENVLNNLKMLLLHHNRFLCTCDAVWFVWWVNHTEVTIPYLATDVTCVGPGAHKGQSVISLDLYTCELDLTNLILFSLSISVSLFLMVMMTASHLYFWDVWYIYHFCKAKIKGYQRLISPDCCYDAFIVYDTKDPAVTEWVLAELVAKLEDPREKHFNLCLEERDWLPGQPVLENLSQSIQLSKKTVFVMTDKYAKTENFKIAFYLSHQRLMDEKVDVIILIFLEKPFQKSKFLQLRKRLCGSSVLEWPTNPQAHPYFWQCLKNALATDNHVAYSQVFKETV
Summary of the method: (§1)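 HEK-Blue cells expressing human TLR7, TLR8 or TLR9 with NF-κB/AP-1-driven SEAP reporter; compounds 0.85 nM–50 μM, pre-treated 60 min. Stimulation: gardiquimod 2.5 μM (TLR7), R848 14.25 μM (TLR8), ODN2006 200 nM (TLR9); SEAP read after 22 h at 37 °C. Percent inhibition normalized between agonist+DMSO and known-inhibitor wells.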

human TLR8 = molecular target: T2, human TLR8 (Homo sapiens, UniProt Q9NR97); experiment: TLR8 inhibition reporter assay (HEK-Blue, SEAP); conditions: HEK-Blue cells overexpressing human TLR8, ligand R848 14.25 μM, 22 hour incubation
T2 construct: host or cells: HEK-Blue cells
T2 sequence (Q9NR97 27-1041): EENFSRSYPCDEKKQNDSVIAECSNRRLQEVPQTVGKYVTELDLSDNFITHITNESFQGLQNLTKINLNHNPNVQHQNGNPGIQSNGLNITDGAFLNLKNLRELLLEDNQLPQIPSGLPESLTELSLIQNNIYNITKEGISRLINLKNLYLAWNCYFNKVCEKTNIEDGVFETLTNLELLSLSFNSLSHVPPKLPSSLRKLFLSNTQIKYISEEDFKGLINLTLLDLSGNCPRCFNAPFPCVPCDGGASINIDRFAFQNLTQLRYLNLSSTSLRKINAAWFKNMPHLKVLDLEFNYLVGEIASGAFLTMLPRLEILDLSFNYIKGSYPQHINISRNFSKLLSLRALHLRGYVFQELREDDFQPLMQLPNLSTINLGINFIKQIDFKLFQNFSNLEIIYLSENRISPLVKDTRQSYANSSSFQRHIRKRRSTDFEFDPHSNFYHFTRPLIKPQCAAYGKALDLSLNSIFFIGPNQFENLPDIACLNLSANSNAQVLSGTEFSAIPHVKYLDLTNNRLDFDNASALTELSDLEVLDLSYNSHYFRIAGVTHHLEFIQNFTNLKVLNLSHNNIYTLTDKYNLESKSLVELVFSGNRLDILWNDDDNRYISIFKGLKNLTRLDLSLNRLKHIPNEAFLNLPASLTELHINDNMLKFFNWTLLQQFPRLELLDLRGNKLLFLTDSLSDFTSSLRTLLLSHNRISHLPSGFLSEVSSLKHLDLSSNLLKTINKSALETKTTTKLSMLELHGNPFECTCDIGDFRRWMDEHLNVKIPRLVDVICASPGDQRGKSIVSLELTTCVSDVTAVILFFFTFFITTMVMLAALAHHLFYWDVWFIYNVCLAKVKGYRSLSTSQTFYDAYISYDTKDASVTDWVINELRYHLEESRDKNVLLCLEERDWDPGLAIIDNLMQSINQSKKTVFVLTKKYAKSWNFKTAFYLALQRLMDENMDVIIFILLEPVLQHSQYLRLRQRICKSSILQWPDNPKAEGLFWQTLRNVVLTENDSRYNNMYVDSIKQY
Summary of the method: as §1

human TLR9 = molecular target: T3, human TLR9 (Homo sapiens, UniProt Q9NR96); experiment: TLR9 inhibition reporter assay (HEK-Blue, SEAP); conditions: HEK-Blue cells overexpressing human TLR9, ligand ODN2006 200 nM, 22 hour incubation
T3 construct: host or cells: HEK-Blue cells
T3 sequence (Q9NR96 26-1032): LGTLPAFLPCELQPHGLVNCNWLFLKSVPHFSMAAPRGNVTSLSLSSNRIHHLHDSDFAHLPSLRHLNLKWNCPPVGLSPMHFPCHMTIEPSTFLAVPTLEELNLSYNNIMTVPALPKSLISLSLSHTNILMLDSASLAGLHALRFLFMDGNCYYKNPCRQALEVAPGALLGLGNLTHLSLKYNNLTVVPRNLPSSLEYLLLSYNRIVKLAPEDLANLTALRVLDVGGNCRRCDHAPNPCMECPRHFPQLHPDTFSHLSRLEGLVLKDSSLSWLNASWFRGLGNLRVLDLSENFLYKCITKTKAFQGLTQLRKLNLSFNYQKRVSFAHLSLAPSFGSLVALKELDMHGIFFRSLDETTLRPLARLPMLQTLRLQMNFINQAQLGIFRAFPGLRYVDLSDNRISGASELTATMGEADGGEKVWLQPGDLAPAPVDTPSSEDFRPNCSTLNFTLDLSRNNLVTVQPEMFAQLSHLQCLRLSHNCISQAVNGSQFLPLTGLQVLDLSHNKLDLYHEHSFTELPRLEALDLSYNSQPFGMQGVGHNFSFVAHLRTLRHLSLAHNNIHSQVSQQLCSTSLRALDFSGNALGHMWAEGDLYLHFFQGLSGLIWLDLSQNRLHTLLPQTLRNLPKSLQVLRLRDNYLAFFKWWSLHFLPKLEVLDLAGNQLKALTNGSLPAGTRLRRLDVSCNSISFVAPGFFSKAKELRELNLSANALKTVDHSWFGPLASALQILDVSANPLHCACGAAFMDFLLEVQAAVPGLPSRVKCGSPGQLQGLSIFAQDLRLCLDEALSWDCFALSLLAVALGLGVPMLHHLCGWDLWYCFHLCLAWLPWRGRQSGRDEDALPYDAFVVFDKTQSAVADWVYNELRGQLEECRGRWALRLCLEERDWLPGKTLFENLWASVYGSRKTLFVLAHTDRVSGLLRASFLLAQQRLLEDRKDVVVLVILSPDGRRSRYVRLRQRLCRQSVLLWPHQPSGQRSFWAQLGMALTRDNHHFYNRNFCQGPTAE
Summary of the method: as §1

Structure (SMILES)	IC50 (human TLR7) [nM]	IC50 (human TLR8) [nM]	IC50 (human TLR9) [nM]
Cc1cc(C2CCN(C3CC4CCC(C3)N4CC3CC3)CC2)nc2c1nc(-c1ccc(S(C)(=O)=O)cc1)n2C (single isomer, unassigned) [Example 31, 5-(1-(8-(cyclopropylmethyl)-8-azabicyclo[3.2.1]octan-3-yl)piperidin-4-yl)-3,7-dimethyl-2-(4-(methylsulfonyl)phenyl)-3H-imidazo[4,5-b]pyridine]	7200	19000	240
CC(C)CN1CCC(N2CCC(c3cnc4nc(-c5ccc(S(C)(=O)=O)cc5)n(C)c4c3)CC2)CC1 [Example 15, 6-(1′-isobutyl-[1,4′-bipiperidin]-4-yl)-1-methyl-2-(4-(methylsulfonyl)phenyl)-1H-imidazo[4,5-b]pyridine]	6400	> 25000	160
Cc1cc(C2CCN(C3CC4CCC(C3)N4CC3CC3)CC2)nc2c1nc(-c1ccc(S(C)(=O)=O)cc1)n2C (single isomer, unassigned) [Example 30, 5-(1-(8-(cyclopropylmethyl)-8-azabicyclo[3.2.1]octan-3-yl)piperidin-4-yl)-3,7-dimethyl-2-(4-(methylsulfonyl)phenyl)-3H-imidazo[4,5-b]pyridine]	2900	> 50000	60
Cn1c(-c2ccc(S(C)(=O)=O)cc2)nc2ccc(C3CCN(C4CCN(C5CC5)CC4)CC3)nc21 [Example 19, 5-(1′-cyclopropyl-[1,4′-bipiperidin]-4-yl)-3-methyl-2-(4-(methylsulfonyl)phenyl)-3H-imidazo[4,5-b]pyridine]	18000	> 25000	870
Cc1cc(C2CCN(C3CC4CCC(C3)N4C(C)C)CC2)nc2c1nc(-c1ccc(S(C)(=O)=O)cc1)n2C (single isomer, unassigned) [Example 26, 5-(1-(8-isopropyl-8-azabicyclo[3.2.1]octan-3-yl)piperidin-4-yl)-3,7-dimethyl-2-(4-(methylsulfonyl)phenyl)-3H-imidazo[4,5-b]pyridine]	10000	> 50000	58
Cc1cc(C2CCN(C3CC4CCC(C3)N4C(C)C)CC2)nc2c1nc(-c1ccc(S(C)(=O)=O)cc1)n2C (single isomer, unassigned) [Example 27, 5-(1-(8-isopropyl-8-azabicyclo[3.2.1]octan-3-yl)piperidin-4-yl)-3,7-dimethyl-2-(4-(methylsulfonyl)phenyl)-3H-imidazo[4,5-b]pyridine]	3700	24000	300
COc1ccc(-c2nc3c(C)cc(C4CCN([C@H]5C[C@@H]6CN(C(C)C)C[C@@H]6C5)CC4)nc3n2C)cc1OC [Example 36, 2-(3,4-dimethoxyphenyl)-5-(1-((3aR,5s,6aS)-2-isopropyloctahydrocyclopenta[c]pyrrol-5-yl)piperidin-4-yl)-3,7-dimethyl-3H-imidazo[4,5-b]pyridine]	1000	> 50000	140

Further lines, results first:

IC50 (human TLR7) [nM]	IC50 (human TLR8) [nM]	IC50 (human TLR9) [nM]	Structure (SMILES)
1500	18000	280	COc1ccc(-c2nc3ncc(-c4ccc(N5CCN(C(C)C)CC5)cc4)cc3n2C)cc1OC [Example 48, 2-(3,4-dimethoxyphenyl)-6-(4-(4-isopropylpiperazin-1-yl)phenyl)-1-methyl-1H-imidazo[4,5-b]pyridine]
4500	> 50000	180	COc1cc(-c2nc3c(C)cc(C4CCN([C@H]5C[C@@H]6CN(C7CCOCC7)C[C@@H]6C5)CC4)nc3n2C)cn2ncnc12 [Example 44, 2-(8-methoxy-[1,2,4]triazolo[1,5-a]pyridin-6-yl)-3,7-dimethyl-5-(1-((3aR,5s,6aS)-2-(tetrahydro-2H-pyran-4-yl)octahydrocyclopenta[c]pyrrol-5-yl)piperidin-4-yl)-3H-imidazo[4,5-b]pyridine]
1600	15000	540	COc1ccc(-c2nc3c(C)cc(-c4ccc(N5CCC6(CC5)CN(C(C)C)C6)cc4)nc3n2C)cc1OC [Example 58, 2-(3,4-dimethoxyphenyl)-5-(4-(2-isopropyl-2,7-diazaspiro[3.5]nonan-7-yl)phenyl)-3,7-dimethyl-3H-imidazo[4,5-b]pyridine]
> 50000	3000	740	CC(C)N1CC2(CN(c3ccc(-c4ccc5nc(-c6ccc(S(C)(=O)=O)cc6)n(C)c5n4)cc3)C2)C1 [Example 65, 5-(4-(6-isopropyl-2,6-diazaspiro[3.3]heptan-2-yl)phenyl)-3-methyl-2-(4-(methylsulfonyl)phenyl)-3H-imidazo[4,5-b]pyridine]
> 50000	> 50000	930	CC(C)N1CCN(c2ccc(-c3ccc4nc(-c5ccc(S(C)(=O)=O)cc5)n(C)c4n3)cc2)CC1 [Example 53, 5-(4-(4-isopropylpiperazin-1-yl)phenyl)-3-methyl-2-(4-(methylsulfonyl)phenyl)-3H-imidazo[4,5-b]pyridine]
